# Data reported in patent publication US20060069132A1, “Azolecarboxamide herbicides” (priority 2004, published 2006).
# Legend:
# barnyardgrass [1] = assay: Test B pre-/postemergence herbicide test; assay type: in vivo, Echinochloa crus-galli; details: for Barnyardgrass plant response rating: postemergence
# Outline: (§1)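 Visual rating, 0 (no effect) to 100 (complete control), versus untreated controls after 13–15 d in greenhouse. Pre- and postemergence applications (postemergence plants 2–18 cm, 1–4 leaves); flooded paddy arm at 2-leaf stage. Compounds in non-phytotoxic solvent plus surfactant.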
# Surinam grass = assay: Test B pre-/postemergence herbicide test; assay type: in vivo, Urochloa decumbens; details: for Surinam Grass plant response rating: postemergence
# Outline: (§2)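 Response was scored visually 13 to 15 days after treatment against untreated greenhouse controls, 0 meaning no effect and 100 complete control. Formulations (solvent mixture plus surfactant) went onto soil after planting, onto foliage of 1- to 4-leaf plants, and onto 2-leaf plants in a flooded paddy set including rice and barnyardgrass.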
# cocklebur = assay: Test B pre-/postemergence herbicide test; assay type: in vivo, Xanthium strumarium; details: for Cocklebur plant response rating: postemergence
# Outline: as §1
# corn = assay: Test B pre-/postemergence herbicide test; assay type: in vivo, Zea mays; details: for Corn plant response rating: postemergence
# Outline: as §2
# large crabgrass = assay: Test B pre-/postemergence herbicide test; assay type: in vivo, Digitaria sanguinalis; details: for Crabgrass, Large plant response rating: postemergence
# Outline: as §2
# giant foxtail = assay: Test B pre-/postemergence herbicide test; assay type: in vivo, Setaria faberi; details: for Foxtail, Giant plant response rating: postemergence
# Outline: as §2
# lambsquarters = assay: Test B pre-/postemergence herbicide test; assay type: in vivo, Chenopodium album; details: for Lambsquarters plant response rating: postemergence
# Outline: as §2
# morningglory = assay: Test B pre-/postemergence herbicide test; assay type: in vivo, Ipomoea coccinea; details: for Morningglory plant response rating: postemergence
# Outline: as §1
# pigweed = assay: Test B pre-/postemergence herbicide test; assay type: in vivo, Amaranthus retroflexus; details: for Pigweed plant response rating: postemergence
# Outline: as §2
# velvetleaf = assay: Test B pre-/postemergence herbicide test; assay type: in vivo, Abutilon theophrasti; details: for Velvetleaf plant response rating: postemergence
# Outline: as §2
# blackgrass = assay: Test B postemergence herbicide test; assay type: in vivo, Alopecurus myosuroides; details: postemergence
# Outline: (§3)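 Visual ratings, 0 (no effect) to 100 (complete control), made versus controls after 13–15 d greenhouse. Paddy plants treated at 2-leaf stage; postemergence plants at 1- to 4-leaf stage, 2–18 cm tall.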
# wheat = assay: Test B postemergence herbicide test; assay type: in vivo, Triticum aestivum; design: key to Wheat plant response rating: 0 = no effect, 100 = complete control; details: postemergence
# Outline: (§4)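 Formulated test chemicals went onto postemergence plants measuring 2 to 18 cm, at one to four leaves. For the paddy assay, species had reached two leaves. Scoring took place 13–15 days later by eye, relative to untreated plants, using 0 for no effect up to 100 for full control.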
# wild oat = assay: Test B postemergence herbicide test; assay type: in vivo, Avena fatua; details: postemergence
# Outline: as §4
# rice [2] = assay: Test B flooded paddy test; assay type: in vivo, Oryza sativa; details: 1000 g ai/ha, scale 0 to 100 (0 no effect, 100 complete control)
# Outline: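 Postemergence plants were sprayed with formulated test chemicals at 2 to 18 cm height (1- to 4-leaf stage); paddy species were grown to the 2-leaf stage. After 13 to 15 days in a greenhouse, injury was rated visually against untreated controls on a 0–100 scale (0 = no effect, 100 = complete control).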
# [3] = test system: small flower umbrella sedge; assay: Test B flooded paddy test; assay type: in vivo, Cyperus difformis; details: 1000 g ai/ha, scale 0 to 100 (0 no effect, 100 complete control)
# Outline: as §3
# ducksalad [4] = assay: Test B flooded paddy test; assay type: in vivo, Heteranthera limosa; details: 1000 g ai/ha, scale 0 to 100 (0 no effect, 100 complete control)
# Outline: as §3
# barnyardgrass [5] = assay: Test B flooded paddy test; assay type: in vivo, Echinochloa crus-galli; details: 1000 g ai/ha, scale 0 to 100 (0 no effect, 100 complete control)
# Outline: as §3
# rice [6] = assay: Test C flooded paddy test; assay type: in vivo, Oryza sativa
# Outline: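 Postemergence sprays applied to plants 2 to 18 cm tall (1- to 4-leaf stage); paddy species grown to 2-leaf stage under flooding. After 12 to 14 days in greenhouse, visual rating versus untreated controls on 0–100 scale (0 no effect, 100 complete control).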
# [7] = test system: smallflower umbrella sedge; assay: Test C flooded paddy test; assay type: in vivo, Cyperus difformis
# ducksalad [8] = assay: Test C flooded paddy test; assay type: in vivo, Heteranthera limosa
# barnyardgrass [9] = assay: Test C flooded paddy test; assay type: in vivo, Echinochloa crus-galli
# Outline: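 Greenhouse test with a 12–14 day hold after application and visual comparison with controls. Emerged plants were 1- to 4-leaf stage (2–18 cm) when sprayed postemergence, and the paddy barnyardgrass was at 2 leaves under flooded conditions. 100 = complete control.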
# [10] = 125 g ai/ha, 0 is no effect, 100 is complete control, preemergence
# [11] = 125 g ai/ha, visual rating, scale 0 (no effect) to 100 (complete control)
# [12] = 500 g ai/ha, visual rating, 0 = no effect, 100 = complete control, preemergence
# [13] = 500 g ai/ha, scale 0 to 100, 0 is no effect, 100 is complete control
# [14] = 125 g ai/ha, scale 0 to 100 (0 no effect, 100 complete control)
# [15] = 250 g ai/ha, scale of 0 to 100, 0 is no effect, 100 is complete control
# [16] = 500 g ai/ha, visual rating after 12 to 14 days, scale 0 to 100 (0 no effect, 100 complete control)
smiles,measurement,setting,value
CCNC(=S)c1ccc(F)c(NC(=O)c2cc(C(C)(C)C)nn2CC)c1 [Compound 349],"Plant response rating (0 to 100 scale), Barnyardgrass",barnyardgrass [1]; [10],80
same,Barnyardgrass plant response rating,barnyardgrass [1]; [11],0
same,"Plant response rating, Barnyardgrass",barnyardgrass [1]; [12],100
same,Barnyardgrass plant response rating,barnyardgrass [1]; [13],10
same,"Plant response rating (0 to 100 scale), Surinam Grass",Surinam grass; [10],50
same,Surinam Grass plant response rating,Surinam grass; [11],0
same,"Plant response rating, Surinam Grass",Surinam grass; [12],90
same,Surinam Grass plant response rating,Surinam grass; [13],20
same,"Plant response rating (0 to 100 scale), Cocklebur",cocklebur; [10],0
same,Cocklebur plant response rating,cocklebur; [11],0
same,"Plant response rating, Cocklebur",cocklebur; [12],80
same,Cocklebur plant response rating,cocklebur; [13],20
same,"Plant response rating (0 to 100 scale), Corn",corn; [10],70
same,Corn plant response rating,corn; [11],0
same,"Plant response rating, Corn",corn; [12],80
same,Corn plant response rating,corn; [13],10
same,"Plant response rating (0 to 100 scale), Crabgrass, Large",large crabgrass; [10],100
same,"Crabgrass, Large plant response rating",large crabgrass; [11],20
same,"Plant response rating, Crabgrass, Large",large crabgrass; [12],100
same,"Crabgrass, Large plant response rating",large crabgrass; [13],20
same,"Plant response rating (0 to 100 scale), Foxtail, Giant",giant foxtail; [10],70
same,"Foxtail, Giant plant response rating",giant foxtail; [11],0
same,"Plant response rating, Foxtail, Giant",giant foxtail; [12],100
same,"Foxtail, Giant plant response rating",giant foxtail; [13],30
same,"Plant response rating (0 to 100 scale), Lambsquarters",lambsquarters; [10],100
same,Lambsquarters plant response rating,lambsquarters; [11],0
same,"Plant response rating, Lambsquarters",lambsquarters; [12],100
same,Lambsquarters plant response rating,lambsquarters; [13],80
same,"Plant response rating (0 to 100 scale), Morningglory",morningglory; [10],0
same,Morningglory plant response rating,morningglory; [11],0
same,"Plant response rating, Morningglory",morningglory; [12],30
same,Morningglory plant response rating,morningglory; [13],50
same,"Plant response rating (0 to 100 scale), Pigweed",pigweed; [10],100
same,Pigweed plant response rating,pigweed; [11],0
same,"Plant response rating, Pigweed",pigweed; [12],100
same,Pigweed plant response rating,pigweed; [13],70
same,"Plant response rating (0 to 100 scale), Velvetleaf",velvetleaf; [10],30
same,Velvetleaf plant response rating,velvetleaf; [11],0
same,Velvetleaf plant response rating,velvetleaf; [13],40
same,Blackgrass plant response rating,blackgrass; [11],20
same,Blackgrass plant response rating,blackgrass; [13],80
same,Wheat plant response rating,wheat; [11],0
same,Wheat plant response rating,wheat; [13],10
same,"Oat, Wild plant response rating",wild oat; [11],10
same,"Oat, Wild plant response rating",wild oat; [13],40
same,Rice plant response rating,rice [2],70
same,"Sedge, Umbrella plant response rating",[3],80
same,Ducksalad plant response rating,ducksalad [4],90
same,Barnyardgrass plant response rating,barnyardgrass [5],80
same,Rice plant response rating,"rice [6]; 62 g ai/ha, scale 0 to 100",50
same,Rice plant response rating,rice [6]; [14],55
same,Rice plant response rating,rice [6]; [15],60
same,"Plant response rating, Rice",rice [6]; [16],70
same,"Sedge, Umbrella plant response rating","[7]; 62 g ai/ha, scale 0 to 100",80
same,"Sedge, Umbrella plant response rating",[7]; [14],85
same,"Sedge, Umbrella plant response rating",[7]; [15],90
same,"Plant response rating, Sedge, Umbrella",[7]; [16],95
same,Ducksalad plant response rating,"ducksalad [8]; 62 g ai/ha, scale 0 to 100",80
same,Ducksalad plant response rating,ducksalad [8]; [14],85
same,Ducksalad plant response rating,ducksalad [8]; [15],85
same,"Plant response rating, Ducksalad",ducksalad [8]; [16],95
same,Barnyardgrass plant response rating,"barnyardgrass [9]; 62 g ai/ha, scale 0 to 100 (0 no effect, 100 complete control)",45
same,Barnyardgrass plant response rating,barnyardgrass [9]; [14],70
same,Barnyardgrass plant response rating,barnyardgrass [9]; [15],90
same,"Plant response rating, Barnyardgrass",barnyardgrass [9]; [16],95
